{"source": "patent US8389739B1", "about": "“Modulators of retinoid-related orphan receptor gamma” (Orphagen Pharmaceuticals, priority 2006, dated 2013)", "key": {"SF-1 (human SF-1)": {"biological_target": "T1, SF-1 (human SF-1) (Homo sapiens, UniProt Q13285)", "T1 construct": "human SF-1 (NR5A1, aa 198-462); expressed in transfected cells; host or cells: CHO cells, transient transfection", "T1 sequence (Q13285 198-461 limits assumed)": "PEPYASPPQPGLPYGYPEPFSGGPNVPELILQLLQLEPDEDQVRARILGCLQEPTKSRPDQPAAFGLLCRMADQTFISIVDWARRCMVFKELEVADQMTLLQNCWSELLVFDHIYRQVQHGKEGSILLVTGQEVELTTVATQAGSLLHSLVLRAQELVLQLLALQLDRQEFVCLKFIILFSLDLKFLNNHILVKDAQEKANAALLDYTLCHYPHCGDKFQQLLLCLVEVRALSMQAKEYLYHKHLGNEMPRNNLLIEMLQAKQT", "assay": "Transcriptional assay of SF-1 as GAL4 hybrid", "assay_type": "cell-based", "conditions": "same format as the GAL4-RORγ assay", "procedure": "This example also describes several additional tests that were commonly performed to confirm the authenticity of a hit to RORγ. These tests also verified the validity of the transcriptional and biochemical assays used. […] In some cases, close analogs of a confirmed hit were obtained by synthesis or purchase from a commercial source. The series of compounds related to the confirmed hit was then tested in the biochemical and transcriptional assays. The rank order of the potency of the compounds was then compared. […] The data imply in turn that the compounds are binding to the same binding pocket. […]\nFour hours after transfection, cells were dislodged with trypsin and seeded into a 384-well plate at 8,000 cells/well using a Titertek Multidrop 384. […] After incubation for 2 hours at 37 degrees centigrade, the conversion of resazurin to resorufin was measured by fluorescence (excitation at 570 nm and emission at 615 nm). […] Percent viability was determined as 2 hour fluorescence, minus background at t=0 hours, normalized to DMSO controls. […] Luminescence is detected with a Victor 2-V plate reader (Perkin-Elmer) and normalized to luciferase activity of DMSO control wells alone."}, "TH-17 cells": {"system": "TH-17 cells", "assay": "TH-17 cell frequency in lymph nodes of PLP-immunized SJL/J mice", "assay_type": "in vivo", "conditions": "100 mg/kg OR-1050 in HRC-6 daily, day 9 after PLP immunization; fraction of total CD4+ cells", "procedure": "FIGS. 11D-F SJL/J mice were immunized with 75 μg PLP139-151 (Day 0). Osmotic pumps delivering vehicle or OR-1050 ([…]) were inserted at Days 3 and 4. Day of onset (FIG. 11E) compares the first day when EAE severity is 1 or higher. The ratio of Th-17 cells (CD4^+CD8^−IL17^+) to […] was analyzed in a separate study (F FIG. 11F) at day 9 after immunization with PLP where mice had been dosed daily with OR-1050 (100 mg/kg in HRC-6) since […]. Statistics (panels A, B, D, F) were performed by Student's t-test. *, P<0.05; #, P<0.01 (mean±sem, n=7-10) or by the Mann-Whitney rank order test (FIGS. 11C, E, median values shown).\nSince OR-1050 inhibits TH-17 cells in ex vivo culture, we also investigated whether TH-17 cell frequency was affected in OR-1050-treated animals. SJL/J female mice (n=9/group) were treated with 100 mg/kg OR-1050 in HRC-6 beginning two days before immunization with PLP (as described above) and continuing until 8 days after immunization. Animals were sacrificed on day 9, and TH-17 cells analyzed from pooled axillary, brachial, and inguinal lymph nodes from each animal. We found a 35% reduction in TH-17 frequency in lymph nodes of SJL/J mice (FIG. 11F) as a fraction of the total CD4^+ cell population. The change in TH-17 frequency with OR-1050 treatment was statistically significant."}, "[1]": {"system": "splenic TH-17 and TH1 cells", "assay": "Splenic TH-17 and TH1 cells in MOG-immunized C57BL/6 mice", "assay_type": "in vivo", "conditions": "100 mg/kg oral gavage for 9 days", "procedure": "C57BL/6 female mice were immunized with 150 μg […] on study day 0. Mice were treated with either OR-1050 at 100 mg/kg or with vehicle (HRC-6) by oral gavage for 9 days starting day O, Splenocytes were collected at Day 9 and stained for TH-17 (CD4^+CD8^−IL17^+) and TH1 (CD4^+CD8^−IFNγ^+) cells. Statistics were performed by Student's t-test."}, "CIA": {"system": "CIA", "assay": "Collagen-induced arthritis (CIA) in DBA/1 mice", "assay_type": "in vivo", "conditions": "100 mg/kg/day OR-1050 p.o. in HRC-6; AUC day 24 to 48, p<0.09"}}, "data": [{"smiles": "O=S(=O)(c1ccccc1)N(CC(F)(F)F)c1ccc(C(O)(C(F)(F)F)C(F)(F)F)cc1", "note": "[Compound T0901317, N-(2,2,2-Trifluoro-ethyl)-N-[4-(2,2,2-trifluoro-1-hydroxy-1-trifluoromethyl-ethyl)-phenyl]-benzenesulfonamide, reference compound]", "values": [{"measurement": "effect on the transcription of SF-1", "setting": "SF-1 (human SF-1)", "value": "no effects"}]}, {"smiles": "CCN(c1ccc(C(O)(C(F)(F)F)C(F)(F)F)cc1)S(=O)(=O)c1ccc([N+](=O)[O-])cc1", "note": "[OR-1050, N-Ethyl-4-nitro-N-[4-(2,2,2-trifluoro-1-hydroxy-1-trifluoromethyl-ethyl)-phenyl]-benzenesulfonamide]", "values": [{"measurement": "effect on the transcription of SF-1", "setting": "SF-1 (human SF-1)", "value": "no effects"}, {"measurement": "reduction in TH-17 frequency in lymph nodes", "setting": "TH-17 cells", "value": 35, "unit": "%"}, {"measurement": "change in TH1 cells", "setting": "[1]", "value": "no change in TH1 cells"}, {"measurement": "inhibition of splenic TH-17 cells", "setting": "[1]; HRC-6, p<0.05, n=8-10", "value": 29, "unit": "%"}, {"measurement": "disease course of CIA (hind limb clinical scores)", "setting": "CIA", "value": "partly suppressed"}]}]}
